The target of one test is TEAD2 (Homo sapiens (Human), UniProt Q15562). The test is described as follows: In vitro palmitoylation (TEAD2 autopalmitoylation, streptavidin blot). To be noted: compound at 10 μM; Table 2. The test is classed as biochemical. Here is the method: Recombinant GST-TEAD2 or His6TEAD2 (500 ng) protein was pre-incubated with the compounds at indicated concentrations for 15 min. and then incubated with 1 μM of alkyne palmitoyl-5 CoA (Cayman Chemical) for 30 min or 50 mM MES, pH 6.4, followed by Click reaction with biotin-azide as previously described (Zheng, B. et al., J. Am. Chem. Soc., 2013, 135, 7082-7085). Click reaction was performed with 100 μM biotin-azide, 1 mM tris(2-carboxyethyl) phosphine hydrochloride (TCEP), 100 μM tris[(1-benzyl-1H-1,2,3-triazol-4-yl) methyl] amine (TBTA) and 1 mM CuSO4 for 1 h at RT.
TEAD2, sequence (Q15562 whole entry): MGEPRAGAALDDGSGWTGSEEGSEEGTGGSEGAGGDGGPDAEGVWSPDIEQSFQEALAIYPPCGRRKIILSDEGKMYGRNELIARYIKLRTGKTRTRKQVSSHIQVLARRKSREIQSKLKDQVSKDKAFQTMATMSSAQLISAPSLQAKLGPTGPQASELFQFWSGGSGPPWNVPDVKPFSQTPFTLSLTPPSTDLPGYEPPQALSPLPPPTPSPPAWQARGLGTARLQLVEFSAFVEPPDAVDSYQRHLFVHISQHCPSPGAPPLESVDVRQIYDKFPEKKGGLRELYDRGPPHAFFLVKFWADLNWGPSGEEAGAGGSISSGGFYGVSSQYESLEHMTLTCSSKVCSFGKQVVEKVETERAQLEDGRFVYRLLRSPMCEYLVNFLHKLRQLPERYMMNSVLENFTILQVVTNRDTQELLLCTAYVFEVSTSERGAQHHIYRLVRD
The reactions were terminated by the addition of 12 μL of 6×SDS-sample loading buffer (50 mM Tris-HCl, pH 6.8, 6% SDS, 48% Glycerol, 0.03% Bromophenol Blue, 30 mM EDTA, 9% MeSH). Samples were analysed by SDS-PAGE and Western blot was performed by probing with streptavidin HRP and histidine HRP antibodies independently. Bands intensity obtained from streptavidin blot were quantified using BIORAD, Gel doc system and the percentage of inhibition of Tead2 auto palmitoylation is determined by comparing to the DMSO control treated samples.
These compounds were tested for activity in inhibiting TEAD2 palmitoylation in the assay described above.
Compound `COC(=O)c1ccccc1Nc1cccc(Nc2ccc(C34CC5CC(CC(C5)C3)C4)cc2)c1` [Compound 1] registered an inhibition at 10 µM of 10%. Still for that read-out and setting: as for `COC(=O)c1ccccc1Nc1ccc(Nc2ccc(C34CC5CC(CC(C5)C3)C4)cc2)cc1` [Compound 2], the figure is 0%. For the compound `COC(=O)c1ccccc1Nc1cc(Nc2ccc(C34CC5CC(CC(C5)C3)C4)cc2)cc(C(F)(F)F)c1` [Compound 3], the inhibition at 10 µM came to 0%.

Still in this test, the particulars now being: compound at 10 μM; Table 3.
As to `COc1ccc(Nc2ccc(N(C)c3ccc(C(F)(F)F)cc3)cc2)c(C#N)c1` [CP-608], the inhibition at 10 µM was determined as 43%. On the same count and under the same terms, under `COc1ccc(Nc2cnc(N(C)c3ccc(C4CCCCC4)cc3)cc2C)c(C(=O)O)c1` [CP-609] stands 54%; under `COc1ccc(Nc2ccc(N(C)c3cc(Cl)cc(Cl)c3)cc2)c(C(=O)O)c1` [CP-612], 86%; under `CN(c1ccc(Nc2ccc(NS(C)(=O)=O)cc2C(=O)O)cc1)c1ccc(C(F)(F)F)cc1` [CP-613], 83%.

`CNS(=O)(=O)c1ccc(Nc2ccc(N(C)c3ccc(C4CCCCC4)cc3)cc2C)c(C(=O)O)c1` [CP-614] had an inhibition at 10 µM of 83%. Take `COc1ccc(Nc2ccc(Oc3ccc(S(F)(F)(F)(F)F)cc3Cl)nc2)c(C(=O)O)c1` [CP-615]: the inhibition at 10 µM amounted to 82%. As for `COc1ccc(Nc2cnc(Oc3ccc(C4CCCCC4)cc3Cl)nc2)c(C(=O)O)c1` [CP-616], the inhibition at 10 µM amounted to 73%.

Compound `COc1ccc(Nc2ccc(N(C)c3ccc(C(F)(F)F)c(Cl)c3)cc2)c(C(=O)O)c1` [CP-617] showed an inhibition at 10 µM of 76%. Still for that read-out and setting: as for `COc1ccc(Nc2ccc(N(C)c3cc(C4CCCCC4)nn3C)cc2)c(C(=O)O)c1` [CP-618], the figure is 31%; as for `Cc1cc(N(C)c2ccc(C3CCCCC3)cc2)ccc1Nc1ccc(NC2CCOCC2)cc1C(=O)O` [CP-620], 0%. Take `Cc1cc(N(C)c2ccc(C3CCCCC3)cc2)ccc1Nc1ccc(N2CCOCC2)cc1C(=O)O` [CP-621]: the inhibition at 10 µM was found to be 47%. The same measure, in the same setting: under `COc1ccc(Nc2ccc(N(C)c3ccc(SC(F)(F)F)cc3)cc2)c(C(=O)O)c1` [CP-622] stands 94%. Same read-out and setting: as for `COc1ccc(Nc2ccc(C3CC3)cc2N(C)c2ccc(C3CCCCC3)cc2)c(C(=O)O)c1` [CP-623], the figure is 73%. The same measure, in the same setting: as for `COc1ccc(Nc2ccc(N(C)c3cc(C(F)(F)F)nn3C)cc2)c(C(=O)O)c1` [CP-624], the figure is 15%; as for `Cc1cc(N(C)c2ccc(C3CCCCC3)cc2)ccc1Nc1ccc(F)cc1C(=O)O` [CP-625], 87%; as for `Cc1cc(N(C)c2ccc(C3CCCCC3)cc2)ccc1Nc1ccc(N2CC3(COC3)C2)cc1C(=O)O` [CP-627], 51%. As to `CCCCOc1ccc(Nc2ccc(N(C)c3ccc(C4CCCCC4)cc3)cc2C)c(C(=O)O)c1` [CP-628], the inhibition at 10 µM is 40%. As to `COc1ccc(Nc2ccc(N(C)c3ccc(C4CCCCC4)cc3)cc2C)c(C(F)(F)F)c1` [CP-629], 10 µM produced 24% inhibition. Still for that read-out and setting: as for `Cc1cc(N(C)c2ccc(C3CCCCC3)cc2)ccc1Nc1ccc(C2CC2)cc1C(=O)O` [CP-630], the figure is 39%; as for `Cc1ccc(Nc2ccc(N(C)c3ccc(C4CCCCC4)cc3)cc2C)c(C(=O)O)c1` [CP-631], 81%; as for `CNC(=O)c1ccc(Nc2ccc(N(C)c3ccc(C4CCCCC4)cc3)cc2C)c(C(=O)O)c1` [CP-632], 73%.

`Cc1cc(N(C)c2ccc(C3CCCCC3)cc2)ccc1Nc1ccc(OCC(C)(C)C)cc1C(=O)O` [CP-633] had an inhibition at 10 µM of 25%. The compound `Cc1cc(N(C)c2ccc(C3CCCCC3)cc2)ccc1Nc1ccc(OC2CCCCC2)cc1C(=O)O` [CP-634] had an inhibition at 10 µM of 32%. The same measure, in the same setting: under `Cc1cc(N(C)c2ccc(C3CCCCC3)cc2)ccc1Nc1ccc(CN)cc1C(=O)O` [CP-635] stands 27%; under `Cc1cc(N(C)c2ccc(C3CCCCC3)cc2)ccc1Nc1cccc(C(=O)O)n1` [CP-636], 68%; under `CNCc1ccc(Nc2ccc(N(C)c3ccc(C4CCCCC4)cc3)cc2C)c(C(=O)O)c1` [CP-637], 5%.

`O=C(O)c1cccc(NC(=O)c2ccc(Nc3ccc(C4CCCCC4)cc3)cc2)c1` [CP-638] displayed an inhibition at 10 µM of 67%.

Compound `Cc1cc(N(C)c2ccc(C3CCCCC3)cc2)ccc1Nc1ccc(CN(C)C)cc1C(=O)O` [CP-640] showed an inhibition at 10 µM of 20%. With `O=C(O)c1cccc(Nc2cc(Nc3ccc(C4CCCCC4)cc3)cc(C(F)(F)F)c2)n1` [CP-641], the inhibition at 10 µM is 69%. The same measure, in the same setting: as for `Cc1cc(C(=O)Nc2ccc(C3CCCCC3)cc2)ccc1Nc1cccc(C(=O)O)n1` [CP-642], the figure is 55%; as for `CN(c1ccc(C2CCCCC2)cc1)c1ccc(Nc2cccc(C(=O)O)n2)cn1` [CP-643], 89%; as for `Cc1cc(N(C)c2ccc(OCC(F)(F)F)cc2)ccc1Nc1cccc(C(=O)O)n1` [CP-646], 39%. The same measure, in the same setting: as for `Cc1cc(N(C)c2ccc(OC(F)(F)F)cc2)ccc1Nc1cccc(C(=O)O)n1` [CP-647], the figure is 87%; as for `CN(c1ccc(Nc2cccc(C(=O)O)n2)cc1)c1ccc(C(F)(F)F)cc1` [CP-648], 89%; as for `Cc1cc(Nc2ccc(C3CCCCC3)cc2)ccc1C(=O)Nc1cccc(C(=O)O)c1` [CP-649], 99%. The same measure, in the same setting: as for `COc1ccc(Nc2ccc(Nc3ccc(C45CC6CC(CC(C6)C4)C5)cc3Cl)cc2)nc1C(=O)O` [CP-650], the figure is 93%; as for `Cc1cc(C(=O)Nc2cccc(C(=O)O)c2)ccc1Nc1ccc(C2CCCCC2)cc1` [CP-651], 85%.

For `Cc1cc(N(C)c2ccc(C3CCCCC3)cc2)ncc1Nc1cccc(C(=O)O)n1` [CP-652], 10 µM produced 37% inhibition. `CNC(=O)c1nc(Nc2ccc(N(C)c3ccc(C4CCCCC4)cc3)cc2C)ccc1S(=O)(=O)NC` [CP-653] gave an inhibition at 10 µM of 24%. The same measure, in the same setting: as for `COc1ccc(Nc2ccc(N(C)c3ccc(C4CCCCC4)cc3)nc2)nc1C(=O)O` [CP-654], the figure is 36%. The compound `CNS(=O)(=O)c1ccc(Nc2ccc(N(C)c3ccc(C4CCCCC4)cc3)cc2C)nc1C(=O)O` [CP-656] yielded an inhibition at 10 µM of 90%. On the same count and under the same terms, as for `CNS(=O)(=O)c1ccc(Nc2ccc(N(C)c3ccc(C4CCCCC4)cc3)cc2C)c(C#N)c1` [CP-657], the figure is 18%; as for `CN(c1ccc(Nc2cccc(C(=O)O)n2)cn1)c1ccc(C2CCCCC2)cc1Cl` [CP-659], 46%; as for `O=C(O)c1cccc(Nc2cc(Nc3ccc(C4CCCCC4)cc3Cl)cc(C(F)(F)F)c2)n1` [CP-660], 66%. On the same count and under the same terms, as for `COc1ccc(Nc2cc(Nc3ccc(C4CCCCC4)cc3)cc(C(F)(F)F)c2)nc1C(=O)O` [CP-661], the figure is 77%; as for `O=C(O)c1cccc(Nc2cc(Nc3ccc(C4CCCCC4)cc3)cc(C(F)(F)F)c2)c1` [CP-662], 88%. On the same count and under the same terms, under `CN(c1ccc(C2CCCCC2)cc1)c1cc(C2CC2)c(Nc2cccc(C(=O)O)n2)cn1` [CP-663] stands 45%.

As to `O=C(Nc1ccc(C2CCCCC2)cc1)c1cccc(Nc2ccccc2C(=O)O)c1` [CP-664], testing at 10 µM gave an inhibition of 50%. The same measure, in the same setting: as for `O=C(Nc1ccc(C2CCCCC2)cc1Cl)c1cccc(Nc2ncccc2C(=O)O)c1` [CP-665], the figure is 96%; as for `O=C(Nc1ccc(C2CCCCC2)cc1Cl)c1cccc(Nc2ccccc2C(=O)O)c1` [CP-666], 79%; as for `COc1ccc(Nc2cccc(C(=O)Nc3ccc(C4CCCCC4)cc3Cl)c2)c(C(=O)O)c1` [CP-669], 75%.

Regarding `CNS(=O)(=O)c1ccc(Nc2ccc(N(C)c3ccc(C4CCCCC4)cc3Cl)cc2C)c(C(=O)O)c1` [CP-671], testing at 10 µM gave an inhibition of 97%. Same read-out and setting: as for `O=C(Nc1ccc(C2CCCCC2)cc1Cl)c1cccc(Nc2ccc(OC3CC3)cc2C(=O)O)c1` [CP-672], the figure is 55%; as for `Cc1cc(N(C)c2ccc(C3CCCCC3)cc2)ncc1Nc1ccc(OC2CC2)cc1C(=O)O` [CP-673], 15%.

Regarding `COc1ccc(Nc2cc(Nc3ccc(C4CCCCC4)cc3Cl)cc(C(F)(F)F)c2)nc1C(=O)O` [CP-675], the inhibition at 10 µM is 83%. On the same count and under the same terms, as for `O=C(O)c1cccc(Nc2cc(Nc3ccc(C4CCCCC4)cc3Cl)cc(C(F)(F)F)c2)c1` [CP-676], the figure is 97%; as for `O=C(O)c1cccnc1Nc1cccc(Nc2ccc(C3CCCCC3)cc2Cl)c1` [CP-677], 96%; as for `Cc1cc(N(C)c2ccc(C3CCCCC3)cc2)ccc1Nc1ccc(C(=O)N2CC(C#N)C2)cc1C(=O)O` [CP-678], 59%.

With `Cc1cc(N(C)c2ccc(C3CCCCC3)cc2)ccc1Nc1ccc(C(=O)N2CC(C(N)=O)C2)cc1C(=O)O` [CP-679], the inhibition at 10 µM amounted to 81%. Same read-out and setting: under `Cc1cc(N(C)c2ccc(C3CCCCC3)cc2Cl)ccc1Nc1cccc(C(=O)O)n1` [CP-681] stands 8%; under `O=C(O)c1cccc(Nc2cccc(Nc3ccc(C4CCCCC4)cc3Cl)c2)n1` [CP-682], 51%.

For the compound `N#Cc1cccc(Nc2ccc(Nc3ccc(C45CC6CC(CC(C6)C4)C5)cc3Cl)cc2)n1` [CP-688], testing at 10 µM gave an inhibition of 17%. The same measure, in the same setting: under `CNS(=O)(=O)c1cccc(Nc2ccc(Nc3ccc(C45CC6CC(CC(C6)C4)C5)cc3Cl)cc2)n1` [CP-694] stands 79%.

Source of the values: US12187722B2, “Small molecule inhibitors of TEAD transcription factors” (The General Hospital Corporation, priority 2019, dated 2025).
